Assay type in all cases: cell-based
Data set [1] has as its system human NHIK 3025/MEM cervix carcinoma cells. Description: Rate of protein synthesis ([3H]-valine incorporation) in NHIK 3025 cells. As to conditions: NHIK 3025/MEM cells, 1 hour treatment with [3H]-valine, compared to prior art compound 15. The text has this:
Human cells of the established line NHIK 3025, originating from a cervical carcinoma in situ (Nordbye, K. and Oftebro, R., Exp. Cell Res., 58: 458, (1969)), (Oftebro, R. and Nordbye, K., Exp. Cell Res., 58: 459-460, (1969)) were cultivated in medium E2a (Puck et al., J. Exp. Med., 106: 145-165, (1957)) supplemented with 20% human (prepared at the laboratory) and 10% horse serum (Grand Island Biological Co.).
(§1) The cells are routinely grown as monolayers in tissue culture flasks. The cells were kept in continuous exponential growth by frequent reculturing, i.e. every second or third day.
(§2) During reculturing as well as during experiments the cells were kept in a walk-in incubator at 37°C.
(§3) The rate of protein synthesis was calculated as described previously (Rønning et al., J. Cell Physiol., 107: 47-57, (1981)). Briefly, cellular protein was labeled to saturation during a 2-day preincubation with [¹⁴C]-valine of constant specific radioactivity (0.5 Ci/mol) prior to the experiment. This was achieved by using a high concentration of valine so that the dilution of [¹⁴C]- valine by intracellular valine and by proteolytically generated valine will be negligible (Rønning et al., Exp. Cell Res., 123: 63-72, (1979)), thus keeping the specific radioactivity at a constant level. The rate of protein synthesis was calculated from the incorporation of [³H]-valine of constant specific activity. The incorporated measurements were related to the total of [¹⁴C]-radioactivity in protein at the beginning of the respective measurement periods and expressed as the percentage per hr (Rønning et al., J. Cell. Physiol., 107: 47-57, (1981)).
In Figure 1 the rate of protein synthesis (as % of control rate) is shown in relation to the concentration of imine used in the treatment of human NHIK 3025/MEM cervix carcinoma cells cultivated in vitro. The treatment period was for 1 hour during which the cell culture medium contained [³H]-valine in addition to the test compound. […]

Data set [2] has as its system 3T3 cells (derived from mouse embryo). Description: Rate of protein synthesis in 3T3 cells. As to conditions: Figure 5.
Text: Balb 3T3-A cells were isolated by Aaronsen and Todaro (J. Cell Physiol. 72, (1968)) 41-148) and were provided by Dr. T.Ege (Karolinska Institutet, Stockholm) in 1980 and have since been cultivated in MEM medium (Hank's salts) supplemented with 15% newborn bovine serum.
as §1, §2, §3
In Figure 5 the effect of compounds 3 and 7 on the rate of the protein synthesis of 3T3 cells (derived from mouse embryo) is shown.

In data set [3] the test system is murine B16 melanoma cells. Description: Rate of protein synthesis in B16 melanoma cells. Particulars: Figure 3, compared to prior art compound 15. The procedure: as §3
In Figure 3, the effect of two imine compounds, 3 and 7, according to the invention and the effect of the prior art compound 15 on the protein synthesis of murine B16 melanoma cells is shown.

Data set [4] deals with non-malignant cell line V79 (Chinese hamster lung cells). Description: Rate of protein synthesis in V79 cells. As to conditions: Figure 4.
Text: V79 379-A cells were provided by Dr. Laszlo Révész (Karolinska Institutet, Stockholm) in 1976 and have since been cultivated in MEM medium (Hank's salts) supplemented with 15% newborn bovine serum. These cells are a clone of the line V79, isolated from Chinese hamster normal lung tissue and established in culture by Ford and Yerganian (see J. Natl. Cancer Inst. 21, (1958) 393-425).
as §1, §2, §3
In Figure 4 the effect of two preferred imines according to the invention, compounds 3 and 7 , on the rate of protein synthesis in the non-malignant cell line V79 (Chinese hamster lung cells).

For data set [5], the system named is human pancreatic carcinoma cell line PANC-1. Nature of the data set: Rate of protein synthesis and cell inactivation ([14C]-radioactivity) in PANC-1 cells. As to conditions: for cell inactivating effect at concentrations (decline in [¹⁴C]-radioactivity): decrease in [14C]-radioactivity is a sign of cell death. As for the experimental part:
PANC-1 cells were purchased from the American Type Culture Collection (ATCC) in 1990. These cells were derived from a human adenocarcinoma of ductal origin (Lieber et al, Int. J. Cancer 15, (1975) 741-747).
as §1, §2, §3
In Figures 6a) and b) the human pancreatic carcinoma cell line PANC-1, cultivated in the medium MEM (with new born calf serum), was used .
In Figures 7a) and b) the human pancreatic carcinoma cell line PANC-1, cultivated in the medium E2a (with human and horse serum), was used .

“Also recorded” adds a separate entry of the source.

`O=C(O)CCCCCN=Cc1cccc([N+](=O)[O-])c1` [Compound 3, 6-(3-Nitrobenzylidene-Amino)-Hexanoic Acid]: the “rate of protein synthesis (as % of control rate)” value (shortened to “rate … (as % of control rate)”) in data set [1] (Figure 1) is reported as “inhibited to a greater degree; also recorded: strongest inhibition on protein synthesis”. The “effect on the rate of the protein synthesis” value in data set [2] is listed as “strong protein synthesis inhibition”. Also, the “effect on the protein synthesis” value in data set [3] is given as “much stronger protein synthesis inhibiting effect”. Moreover, the “effect on the rate of protein synthesis” value in data set [4] is “significantly inhibit protein synthesis”.

For `COC(=O)c1ccc(C=NCCCCCCCCCCC(=O)O)cc1` [Compound 4, 11-(4-Carbomethoxy-benzylidene-Amino) -Undecanoic Acid], the “rate … (as % of control rate)” value in data set [1] (Figure 1) is listed as “inhibited to a greater degree; also recorded: strongest inhibition on protein synthesis”.

Turning to `[2H]C(=NCCCN(C)C)c1ccccc1` [Compound 14, 1-(Benzylidene-d1-Amino)-3-(Dimethyl-amino)-Propane], the “cell inactivating effect at concentrations (decline in [¹⁴C]-radioactivity)” value in data set [5] (Figure 6b, PANC-1 in medium MEM) was “above 2 mM”; in data set [5] (Figure 7b, PANC-1 in medium E2a), “above 2 mM”.

Turning to `O=[N+]([O-])c1cccc(C=NCCCCO)c1` [Compound 7, 4-(3-Nitrobenzylidene-Amino)-Butan-1-ol], in data set [1] (Figure 2), the “rate … (as % of control rate)” value is on record as “inhibited to a greater degree; also recorded: strongest inhibition on protein synthesis”. The “effect on the rate of the protein synthesis” value in data set [2] is “strong protein synthesis inhibition”. For the same molecule, the “effect on the protein synthesis” value in data set [3] is reported as “much stronger protein synthesis inhibiting effect”. For the same molecule, the “effect on the rate of protein synthesis” value in data set [4] is reported as “significantly inhibit protein synthesis; also recorded: slightly more effective than compound 3”.

Take `[2H]C1(c2ccccc2)OC[C@@H]([C@H]2OC(=O)C(O)=C2O)O1` (stereo partly drawn) [Compound 15, Sodium 5,6-0-Benzylidene-d1-L-Ascorbate, reference compound]: the “protein synthesis inhibiting activity” value is “little protein synthesis inhibiting activity” in data set [5] (Figures 6a/6b, PANC-1 in medium MEM (with new born calf serum)); “little protein synthesis inhibiting activity” in data set [5] (Figures 7a/7b, PANC-1 in medium E2a (with human and horse serum)). For the same molecule, the “effect on the rate of the protein synthesis” value in data set [2] is given as “little effect”. Also, in data set [4], the “effect on the rate of protein synthesis” value is given as “little or no inhibition”.

The values above are taken from EP0609032A1, “Aromatic imine compounds, pharmaceutical composition thereof, useful as protein synthesis inhibitors” (NORSK HYDRO A/S, priority 1993, dated 1994).
